Measured values taken from publication PMC12257394, “Design, Synthesis, and Biological Evaluation of Ferrocenyl–Cyclo-(Gly‑L‑Pro) Hybrids Sensitizing Multidrug-Resistant Cancer Cells to Anticancer Agents” (ACS Medicinal Chemistry Letters, 2025).

How the values were obtained:
Format in all cases: cell-based, human
[1] = system: SW620 cells; assay: Neutral red uptake viability assay, SW620; details: for survival rate: 72 h, n = 3, ± SD; for IC50: SW620, 72 h, n = 3, read-out: Cytotoxic activity IC50 (95% CI)
Experimental: (§1) To evaluate this aspect, we investigated the viability of SW620 colon cancer cells and their multidrug-resistant variants (overexpressing ABCB1, ABCC1, and ABCG2) exposed to 1 and 10 μM 4a–e using a neutral red uptake assay (Table ). In general, compounds 4a–e exerted little or no cytotoxic effect on either SW620 or multidrug-resistant sublines even at 10 μM, with the remarkable exception of SW620C (cisplatin-selected variant of SW620) cells, which turned out to be relatively susceptible toward ferrocenyl 4a–c. […] This trend may reflect steric or electronic contributions to cellular uptake or interaction with intracellular targets. […] However, since E/Z isomeric data are currently available only for compound 4c, this hypothesis requires validation. To quantify this effect, IC50 values were determined (Table ). […]
(§2) The normal lung fibroblast MRC-5 and colorectal adenocarcinoma SW620 cell lines used in this experiment were purchased from American Type Culture Collection (USA) via LGC […]
(§3) Standards. Multidrug-resistant variants of SW620 cells were developed in our laboratory as described previously.10, 11 All cells were cultured under standard conditions (37°C, 5% CO2, 100% humidity) in high-glucose DMEM supplemented with GlutaMaxTM, HEPES (ThermoFisher Scientific, USA), and 10% fetal bovine serum (EURx, Poland). Cells were routinely tested for potential Mycoplasma contamination using the MycoProbe Mycoplasma Detection kit (R&D System, USA).
(§4) In total, 104 cells in 100 µL of complete medium were plated per well of a 96-well plate and left overnight to allow cells to adhere to the surface. Then, the cells were exposed to a desired concentration of tested compound(s). Stock solutions were prepared in DMSO and used immediately. The final DMSO concentration was constant and nontoxic (0.1% v/v). After 70-h incubation, neutral red was added to the final concentration of 1 mM. After another 2 h, the medium was aspirated, and cells were washed twice with PBS. Dye was released using 100 µL of a solubilizer (1% acetic acid in 50% ethanol) on an orbital shaker (10 min). Absorbance was read at 540 nm using EnVision Multilabel Plate Reader (Perkin Elmer, USA). Results were expressed as % of control. The IC50 parameters were calculated using GraphPad Prism version 10 (GraphPad Software, Boston, Massachusetts USA). […]
(§5) All experiments were performed in triplicate (n = 3).

[2] = system: SW620C cells (cisplatin-resistant); assay: Neutral red uptake viability assay, SW620C; details: for survival rate / Cytotoxic activity IC50 (95% CI) / IC50: SW620C, 72 h; for survival rate: n = 3, ± SD; for Cytotoxic activity IC50 (95% CI) / IC50: n = 3; for IC50: read-out: Cytotoxic activity IC50 (95% CI)
Experimental: as §2
as §3, with “described” for “Standards. Multidrug-resistant variants of SW620 cells were developed in our laboratory as described”
as §4
IC₅₀ values were determined in […]
as §5

[3] = system: SW620V cells (vincristine-resistant); assay: Neutral red uptake viability assay, SW620V; details: 72 h; for survival rate: n = 3, ± SD; for IC50: n = 3, read-out: Cytotoxic activity IC50 (95% CI)
Experimental: as §1, with “In” for “To evaluate this aspect, we investigated the viability of SW620 colon cancer cells and their multidrug-resistant variants (overexpressing ABCB1, ABCC1, and ABCG2) exposed to 1 and 10 μM 4a–e using a neutral red uptake assay (Table ). In”
as §2, §3
(§6) In total, 104 cells in 100 µL of complete medium were plated per well of a 96-well plate and left overnight to allow cells to adhere to the surface. Then, the cells were exposed to a desired concentration of tested compound(s). Stock solutions were prepared in DMSO and used immediately. The final DMSO concentration was constant and nontoxic (0.1% v/v). After 70-h incubation, neutral red was added to the final concentration of 1 mM. After another 2 h, the medium was aspirated, and cells were washed twice with PBS. Dye was released using 100 µL of a solubilizer (1% acetic acid in 50% ethanol) on an orbital shaker (10 min). Absorbance was read at 540 nm using EnVision Multilabel Plate Reader (Perkin Elmer, USA). Results were expressed as % of control. The IC50 parameters were calculated using GraphPad Prism version 10 (GraphPad Software, Boston, Massachusetts USA).
(§7) The enhancement of reversal potency (ERP) value determination
(§8) For MDR reversal assays, cytotoxic agents were co-administered with compounds 4a–4e at equimolar concentrations in a range of 10 nM to 100 µM. IC₅₀ values were determined in ABCB1-overexpressing SW620 cell line variants. The enhancement of reversal potency (ERP) was calculated using the following formula: ERP = IC₅₀(drug)MDR / IC₅₀(drug + compound)MDR. All experiments were performed in triplicate (n = 3).

[4] = system: ABCG2-overexpressing SW620Mito cells; assay: MDR reversal assay (ERP), SW620Mito; details: for ERP value, mitoxantrone + compound: SW620Mito (xlsx); for ERP = IC50(drug)MDR/IC50(drug+4)MDR: mitoxantrone, SW620Mito
Source text: We investigated the potency of 4a–e to inhibit ABC transporters (ABCB1, ABCC1, and ABCG2) by determining their enhancement of reversal potency (ERP) values. ERP represents fold changes in the IC50 values of anticancer drugs in multidrug-resistant cancer sublines (ABCB1-overexpressing SW620D, SW620E, and SW620V; ABCC1-overexpressing SW620M; ABCG2-overexpressing SW620C and SW620Mito) exposed to a combination of the investigated compounds and anticancer agents at equimolar concentrations, compared with values obtained with drugs alone (Tables S2 and S3 and Figure ).
as §3, §6, §7, §8

[5] = system: SW620E cells; assay: Synergy determination (Bliss model, SynergyFinder), SW620E; details: drug etoposide + additive; for synergy score: Bliss model
Source text: (§9) In an ideal setting, the effect of cell exposure to a combination of a chemotherapeutic and an MDR inhibitor should be synergistic. […] The highest synergy scores identified an optimal concentration range where the combination exerted its maximal effect. […] In cisplatin-resistant SW620C cells, the low or lack of synergy observed for most compounds may be due to the additive effects of cisplatin and 4 rather than a true synergistic interaction. […]
(§10) To evaluate the potential interactions between putative ABC inhibitors and anticancer drugs, we utilized the Bliss independence model, as implemented in the SynergyFinder web application.13, 14 Synergy scores and the most synergistic area scores were calculated based on the normalized dose–response matrices. A synergy score below −10 indicates likely […]
(§11) above 10 is indicative of likely synergistic interactions.
(§12) All experiments were performed at least three times, and the data were statistically analyzed

[6] = system: SW620Mito cells; assay: Synergy determination (Bliss model, SynergyFinder), SW620Mito; details: drug mitoxantrone + additive, SW602Mito; for synergy score: Bliss model
Source text: as §9, §10, §11, §12

SMILES: O=C1N/C(=C\[c-]2cccc2)C(=O)N2CCC[C@@H]12.[Fe+2].c1cc[cH-]c1 [(S,Z)-4a]
- survival rate ([1]; SW620, 1 μM): 95 ± 2.2%
- survival rate ([1]; SW620, 10 μM): 88 ± 6.0%
- IC50 [1]: > 100 µM
- survival rate ([2]; 1 μM): 78 ± 1.8%
- survival rate ([2]; 10 μM): 54 ± 3.1%
- Cytotoxic activity IC50 (95% CI) [2]: low-micromolar
- IC50 [2]: 15.1 µM
- survival rate ([3]; 1 μM): 94 ± 0.7%
- survival rate ([3]; 10 μM): 94 ± 2.5%
- IC50 [3]: > 100 µM
- ERP value, mitoxantrone + compound [4]: 4.61
- ERP = IC50(drug)MDR/IC50(drug+4)MDR [4]: 4.61
- most synergistic area score [5]: 28.26
- synergy score [5]: 12.44
- most synergistic area score [6]: 16.82
- synergy score [6]: 7.86

SMILES: O=C1N/C(=C\c2ccc(-[c-]3cccc3)cc2)C(=O)N2CCC[C@@H]12.[Fe+2].c1cc[cH-]c1 [(S,Z)-4d]
- survival rate ([1]; SW620, 1 μM): 97 ± 3.0%
- survival rate ([1]; SW620, 10 μM): 97 ± 2.1%
- IC50 [1]: > 100 µM
- survival rate ([2]; 1 μM): 96 ± 3.6%
- IC50 [2]: > 100 µM
- survival rate ([3]; 1 μM): 94 ± 2.9%
- survival rate ([3]; 10 μM): 95 ± 3.2%
- IC50 [3]: > 100 µM
- ERP value, mitoxantrone + compound [4]: 10.3
- ERP = IC50(drug)MDR/IC50(drug+4)MDR [4]: 10.3
- most synergistic area score [5]: 26.95
- synergy score [5]: 16.02
- most synergistic area score [6]: 27.66
- synergy score [6]: 17.05

SMILES: O=C1N/C(=C\c2ccccc2-[c-]2cccc2)C(=O)N2CCC[C@@H]12.[Fe+2].c1cc[cH-]c1 [(S,Z)-4b]
- survival rate ([1]; SW620, 1 μM): 91 ± 8.0%
- survival rate ([1]; SW620, 10 μM): 84 ± 13%
- IC50 [1]: > 100 µM
- survival rate ([2]; 1 μM): 83 ± 4.2%
- survival rate ([2]; 10 μM): 57 ± 1.1%
- Cytotoxic activity IC50 (95% CI) [2]: low-micromolar
- IC50 [2]: 12 µM
- survival rate ([3]; 1 μM): 92 ± 0.9%
- survival rate ([3]; 10 μM): 95 ± 2.4%
- IC50 [3]: 48.8 µM
- ERP value, mitoxantrone + compound [4]: 9.11
- ERP = IC50(drug)MDR/IC50(drug+4)MDR [4]: 9.11
- most synergistic area score [5]: 14.42
- synergy score [5]: 3.32
- most synergistic area score [6]: 19.63
- synergy score [6]: 11.11

SMILES: O=C1N/C(=C/c2cccc(-[c-]3cccc3)c2)C(=O)N2CCC[C@@H]12.[Fe+2].c1cc[cH-]c1 [(S,E)-4c]
- survival rate ([1]; SW620, 1 μM): 95 ± 3.4%
- survival rate ([1]; SW620, 10 μM): 95 ± 6.0%
- IC50 [1]: > 100 µM
- fold higher IC50 value than (S,Z)-4c ([2]; SW620C cells): 13 fold
- survival rate ([2]; 1 μM): 84 ± 0.7%
- survival rate ([2]; 10 μM): 87 ± 1.1%
- IC50 [2]: 62.4 µM
- survival rate ([3]; 1 μM): 96 ± 1.8%
- survival rate ([3]; 10 μM): 94 ± 0.8%
- IC50 [3]: > 100 µM
- ERP value, mitoxantrone + compound [4]: 0.87
- ERP = IC50(drug)MDR/IC50(drug+4)MDR [4]: 0.87
- most synergistic area score [5]: 1.22
- synergy score [5]: –4.06
- most synergistic area score [6]: 0.67
- synergy score [6]: –4.74

SMILES: O=C1N/C(=C/c2ccccc2)C(=O)N2CCC[C@@H]12 [(S,E)-4e]
- survival rate ([1]; SW620, 1 μM): 96 ± 3.4%
- survival rate ([1]; SW620, 10 μM): 96 ± 2.2%
- survival rate ([2]; 1 μM): 96 ± 0.8%
- survival rate ([2]; 10 μM): 95 ± 2.5%
- survival rate ([3]; 1 μM): 95 ± 2.9%
- survival rate ([3]; 10 μM): 95 ± 3.3%
- ERP value, mitoxantrone + compound [4]: 0.82
- ERP = IC50(drug)MDR/IC50(drug+4)MDR [4]: 0.82
- most synergistic area score [5]: 0.19
- synergy score [5]: –3.93
- most synergistic area score [6]: 4.35
- synergy score [6]: –0.12

SMILES: O=C1N/C(=C\c2ccccc2)C(=O)N2CCC[C@@H]12 [(S,Z)-4e]
- survival rate ([1]; SW620, 1 μM): 94 ± 5.4%
- survival rate ([1]; SW620, 10 μM): 92 ± 5.0%
- survival rate ([2]; 1 μM): 95 ± 2.1%
- survival rate ([2]; 10 μM): 95 ± 1.0%
- survival rate ([3]; 1 μM): 98 ± 0.9%
- survival rate ([3]; 10 μM): 99 ± 1.4%
- ERP value, mitoxantrone + compound [4]: 1.01
- ERP = IC50(drug)MDR/IC50(drug+4)MDR [4]: 1.01
- most synergistic area score [5]: 2.22
- synergy score [5]: –2.56
- most synergistic area score [6]: 0.00
- synergy score [6]: –3.17
